The values that follow come from publication doi:10.1101/2025.11.19.689330v1 (bioRxiv, 2025).

What all share (type): cell-based, human
For assay [1], the system named is Golgi of HeLa cells. As to the kind of experiment: FRET co-assembly of 2 with quencher 7, Golgi fluorescence over 24 minutes. Conditions: 2 (10 nM) with 7 (5, 10, 20 nM) or UBQ2-COOH (10, 20 nM).
The subject of assay [2] is Golgi of HeLa cells. Kind of assay: BFA-induced Golgi disassembly in cells prelabeled with 2. Conditions: HeLa cells prelabeled with 2 (10 nM, 30 min), BFA 10 μM.
The subject of assay [3] is Golgi of HeLa cells. As to the kind of experiment: CLSM Golgi labeling at ultralow concentrations. The following applies: 4 hours.
For assay [4], the system named is Golgi of HeLa cells. Kind of assay: Time-lapse CLSM of Golgi fluorescence build-up. The following applies: over 24 minutes.
For assay [5], the system named is Golgi of HeLa cells. As to the kind of experiment: FRAP assay at the Golgi. The following applies: 500 nM, after 30-minute treatment.

Consider `COc1cc(N=Nc2ccc([N+](=O)[O-])cc2)c(OC)cc1N=Nc1ccc(N(C)CCCC(=O)O)cc1` [UBQ2], for which, in the assay with Golgi of HeLa cells [1], the “effect on Golgi fluorescence of 2 on co-treatment” value was “did not diminish Golgi fluorescence”.
`C[C@H]1CCC/C=C/[C@@H]2C[C@H](O)C[C@H]2[C@H](O)/C=C/C(=O)O1` [BFA, brefeldin A]: in the assay on Golgi of HeLa cells [2], the “time at which the Golgi begins to lose its defined morphology” value is 5.5 minutes and the “time at which the Golgi collapses into the ER” value worked out at 6.5 min.
Turning to `CCCCCCCCCCCCC/C=C/[C@@H](O)[C@H](CO)NC(=O)CCCCC1=[N+]2C(=Cc3c(C)cc(C)n3[B-]2(F)F)C=C1` [BODIPY-C5-Ceramide], in the assay on Golgi of HeLa cells [3] (10 nM), the “Golgi fluorescence at 10 nM” value was “very dim fluorescence at the Golgi”. Moreover, the “Golgi localization at picomolar concentrations” value in the assay on Golgi of HeLa cells [3] (picomolar concentrations (500 pM)) is “no detectable Golgi localization”. Besides, the “Golgi fluorescence in time-lapse imaging at 10 nM” value in the assay on Golgi of HeLa cells [4] was “no significant Golgi fluorescence”. Further, in the assay with Golgi of HeLa cells [5], the “immobile fraction (IMf) at the Golgi” value came out at 0.52.
